{"source": "patent US20230321012A1", "about": "(priority 2021, published 2023)", "key": {"[1]": {"details": "mouse, in vivo"}, "in vivo [2]": {"assay": "in vivo", "details": "male, Th-MYCN, mouse", "description": "Male Th-MYCN mice, approximately 5-6 weeks of age, with spontaneous neuroblastoma tumor development commenced treatment according to Table 6.1 when tumors were approximately 5 mm in size. […] Time point: three treatments, cull 24 hours after last treatment in the morning.\nSample Preparation. Animals were euthanized on the morning of the 4th day, after three days of treatment and shaved, and then the carcasses were frozen. Tissues stored at −80° C. were placed inside the cryostat. The temperature of the cryostat was maintained around −20° C. and −40° C. 20-am tissue sections in the sagittal plane going through the left eye were obtained for each carcass. Tissue sections were mounted directly on indium tin oxide (ITO) slides.\nTissue sections on ITO slides were placed in a desiccator for 15 minutes before matrix deposition. An image of the slides was then acquired with a scanner to synchronize positions of the tissue sections with the target of the laser.\nDilution series of the test items were prepared in water from the stock solutions. […] A spot of pure solvent was added as a negative control. Slides were then placed in a desiccator for 15 minutes before MALDI matrix deposition. The control liver tissue consisted of a liver homogenate spiked with an olanzapine standard at 40 g/g of tissue. Sections of the liver homogenate were prepared and added on each ITO slide in order to monitor the signal of the FTICR through the different acquisitions and thus validate the comparison between slides.\nFor AMXT 1501, 2,5-dihydroxybenzoic acid (DHB) at 40 mg/ml in 1:1 MeOH/H2O with 1% trifluoroacetic acid (TFA) and 25 nM of ^13C4-AMXT 1501 was sprayed on the samples with an automatic sprayer (TM-Sprayer, HTX-Imaging).\nThe mass spectrometry imaging (MSI) acquisitions were performed using the parameters in Table 6.2 with a data reduction parameter set at 95%. MSI data were acquired and analyzed with FlexImaging 4.1 (Bruker Daltonics), Data Analysis 4.0 (Bruker Daltonics) and Multimaging™ 1.2.2 (ImaBioTech).\nIntensity scales representing the molecular signal were adjusted for each image to discriminate the noise from the molecular signal but also to give the best visualization of the signal across the sections. […] Convolution step was performed on the original images using a normalized uniform kernel, which averages the values around a position. The kernel size was manually optimized for the analysis, minimizing the background noise. Based on the MSI data set on the tissue sections and the dilution series, the quantitation of the test items was performed with the IS approach. A correlation between the calibration curve and the signal obtained on the tissues was performed in order to determine the concentration of the test items per histological structure in g/g of tissue and μM."}, "four tumor cell lines": {"test_system": "four tumor cell lines", "assay": "In vitro tumor cell growth inhibition by AMXT 1501", "format": "cell-based", "details": "equivalent of 51 nM", "excerpt": "See Burns, M. R., et al., J Med Chem 52, 1983-1993 (2009), the entire content of which is incorporated herein by reference."}, "in vivo [3]": {"assay": "in vivo", "details": "BALB/c, mouse, 2.5 mg/kg"}}, "note": "“And” between values parts separate entries of the source, which are not always exact repeats. Equal entries are not always repeated."}
{"compound": "CCCCCCCCCCCCCCCC(=O)NCCCC[C@@H](N)C(=O)NCCCNCCCCNCCCN", "note": "[AMXT 1501, D-lys(palmitoyl)-spermine]", "values": [{"measurement": "effect of DFMO on AMXT 1501 tumor retention", "setting": "[1]", "result": "no effect"}, {"measurement": "tumor AUC, AMXT 1501", "setting": "[1]", "result": "152,000 hr*ng/mL"}, {"measurement": "tumor AUC0-∞, AMXT 1501", "setting": "[1]; sc, 2.5 mg/kg", "result": "138,000 hr*ng/mL"}, {"measurement": "concentration at 96 h", "setting": "in vivo [2]; brown fat, sc, 2.5 mg/kg", "result": 8330, "unit": "ng/g"}, {"measurement": "concentration at 96 h", "setting": "in vivo [2]; cardiac blood, sc, 2.5 mg/kg", "result": 8370, "unit": "ng/g"}, {"measurement": "concentration at 96 h", "setting": "in vivo [2]; eye, sc, 2.5 mg/kg", "result": 9300, "unit": "ng/g"}, {"measurement": "concentration at 96 h", "setting": "in vivo [2]; intestine contents, sc, 2.5 mg/kg", "result": 8470, "unit": "ng/g"}, {"measurement": "concentration at 96 h", "setting": "in vivo [2]; intestine wall, sc, 2.5 mg/kg", "result": 9000, "unit": "ng/g"}, {"measurement": "concentration at 96 h", "setting": "in vivo [2]; intestine wall, subcutaneous, 2.5 mg/kg", "result": 11400, "unit": "ng/g"}, {"measurement": "concentration at 96 h", "setting": "in vivo [2]; kidney, sc, 2.5 mg/kg", "result": 5640, "unit": "ng/g"}, {"measurement": "concentration at 96 h", "setting": "in vivo [2]; kidney, subcutaneous, 2.5 mg/kg", "result": 12100, "unit": "ng/g"}, {"measurement": "concentration at 96 h", "setting": "in vivo [2]; liver, sc, 2.5 mg/kg", "result": 8870, "unit": "ng/g"}, {"measurement": "concentration at 96 h", "setting": "in vivo [2]; liver, subcutaneous, 2.5 mg/kg", "result": 9530, "unit": "ng/g"}, {"measurement": "concentration at 96 h", "setting": "in vivo [2]; lung, sc, 2.5 mg/kg", "result": 14500, "unit": "ng/g"}, {"measurement": "concentration at 96 h", "setting": "in vivo [2]; lung, subcutaneous, 2.5 mg/kg", "result": 17000, "unit": "ng/g"}, {"measurement": "concentration at 96 h", "setting": "in vivo [2]; myocardium, sc, 2.5 mg/kg", "result": 8440, "unit": "ng/g"}, {"measurement": "concentration at 96 h", "setting": "in vivo [2]; myocardium, subcutaneous, 2.5 mg/kg", "result": 9590, "unit": "ng/g"}, {"measurement": "concentration at 24 h", "setting": "in vivo [2]; organs (range across organs), subcutaneous, 2.5 mg/kg", "result": "3360 ng/g to 17000 ng/g and 5.9 µM to 29.9 µM"}, {"measurement": "concentration at 24 h", "setting": "in vivo [2]; organs, range from intestine contents to lung, subcutaneous, 2.5 mg/kg", "result": "3360 to 17000", "unit": "ng/g"}, {"measurement": "concentration at 96 h", "setting": "in vivo [2]; pancreas, sc, 2.5 mg/kg", "result": 8430, "unit": "ng/g"}, {"measurement": "concentration at 96 h", "setting": "in vivo [2]; pancreas, subcutaneous, 2.5 mg/kg", "result": 8540, "unit": "ng/g"}, {"measurement": "concentration at 96 h", "setting": "in vivo [2]; spleen, subcutaneous, 2.5 mg/kg", "result": 12900, "unit": "ng/g"}, {"measurement": "concentration at 96 h", "setting": "in vivo [2]; stomach contents, sc, 2.5 mg/kg", "result": 8800, "unit": "ng/g"}, {"measurement": "concentration at 96 h", "setting": "in vivo [2]; stomach contents, subcutaneous, 2.5 mg/kg", "result": 8480, "unit": "ng/g"}, {"measurement": "concentration at 96 h", "setting": "in vivo [2]; stomach wall, sc, 2.5 mg/kg", "result": 8550, "unit": "ng/g"}, {"measurement": "concentration at 96 h", "setting": "in vivo [2]; stomach wall, subcutaneous, 2.5 mg/kg", "result": 8810, "unit": "ng/g"}, {"measurement": "concentration at 96 h", "setting": "in vivo [2]; testis, sc, 2.5 mg/kg", "result": 9160, "unit": "ng/g"}, {"measurement": "concentration at 96 h", "setting": "in vivo [2]; testis, subcutaneous, 2.5 mg/kg", "result": 9820, "unit": "ng/g"}, {"measurement": "concentration at 96 h", "setting": "in vivo [2]; thymus, sc, 2.5 mg/kg", "result": 10700, "unit": "ng/g"}, {"measurement": "concentration at 96 h", "setting": "in vivo [2]; thymus, subcutaneous, 2.5 mg/kg", "result": 13900, "unit": "ng/g"}, {"measurement": "concentration at 96 h", "setting": "in vivo [2]; tumor, sc, 2.5 mg/kg", "result": 10000, "unit": "ng/g"}, {"measurement": "concentration at 24 h", "setting": "in vivo [2]; tumor, subcutaneous", "result": 12.7, "unit": "µM"}, {"measurement": "concentration at 24 h", "setting": "in vivo [2]; tumor, subcutaneous, 2.5 mg/kg", "result": "7230 ng/mL and 10000 ng/g and 17.6 µM"}, {"measurement": "EC50 expressed per tissue weight", "setting": "four tumor cell lines", "result": 0.029, "unit": "µg/g"}, {"measurement": "EC50", "setting": "four tumor cell lines; read-out: EC50 as equivalent plasma concentration", "result": 0.028, "unit": "µg/mL"}, {"measurement": "AUC", "setting": "in vivo [3]; plasma, sc", "result": 8270, "unit": "ng·h/mL"}, {"measurement": "AUC(0-inf)", "setting": "in vivo [3]; plasma, sc", "result": 8890, "unit": "ng·h/mL"}, {"measurement": "Cmax", "setting": "in vivo [3]; plasma, sc", "result": 978, "unit": "ng/mL"}, {"measurement": "Kp", "setting": "in vivo [3]; tumor and plasma, sc", "result": 15.5}, {"measurement": "Kp at 72 h", "setting": "in vivo [3]; tumor and plasma, sc", "result": 894}, {"measurement": "Kp", "setting": "in vivo [3]; tumor and plasma, subcutaneous", "result": 18}, {"measurement": "concentration at 72 h", "setting": "in vivo [3]; tumor, subcutaneous", "result": "~1000", "unit": "ng/mL"}]}
